This test relates to Adjuvant arthritis. Kind of test: Adjuvant arthritis in the rat (in vivo study), weight of the paw. Also noted: species or system rat (male Sprague-Dawley). To be noted: 10 mg/kg per day cutaneously, 6 days per week, 3 weeks, started 15 days after Mycobacterium tuberculosis injection, right rear paw.

Each structure is given as a SMILES string. Structures can show the parent of a compound that is named as a salt.

Take `O=P(O)(O)C(Sc1ccccc1Cl)P(=O)(O)O` [SR 41 689]: the “Adjuvant arthritis, weight of the paw % inhibition (difference in average paw weight of treated arthritic rats relative to reference arthritic rats)” value was 31%.

For the compound `NCCSC(P(=O)(O)O)P(=O)(O)O` [SR 41 266], the “Adjuvant arthritis, weight of the paw % inhibition (difference in average paw weight of treated arthritic rats relative to reference arthritic rats)” value is listed as 29%.

As to `O=P(O)(O)C(Sc1ccccn1)P(=O)(O)O` [SR 41 179], the “Adjuvant arthritis, weight of the paw % inhibition (difference in average paw weight of treated arthritic rats relative to reference arthritic rats)” value turned out to be 25%.

For `O=P(O)(O)C(Sc1nc2cc(Cl)ccc2[nH]1)P(=O)(O)O` [SR 41 480], the “Adjuvant arthritis, weight of the paw % inhibition (difference in average paw weight of treated arthritic rats relative to reference arthritic rats)” value is listed as 40%.

As for `CCCCCCCSC(P(=O)(O)O)P(=O)(O)O` [SR 41 552], the “Adjuvant arthritis, weight of the paw % inhibition (difference in average paw weight of treated arthritic rats relative to reference arthritic rats)” value is 36%.

For the compound `CSC(P(=O)(O)O)P(=O)(O)O` [SR 41 036, Tri-(tertiary butylamine) salt of methylthio-methylene-diphosphonic acid], the “Adjuvant arthritis, weight of the paw % inhibition (difference in average paw weight of treated arthritic rats relative to reference arthritic rats)” value is recorded as 23%.

Regarding `CN(C)CCSC(P(=O)(O)O)P(=O)(O)O` [SR 41 344], the “Adjuvant arthritis, weight of the paw % inhibition (difference in average paw weight of treated arthritic rats relative to reference arthritic rats)” value is on record as 35%.

`O=P(O)(O)C(CCCCS)P(=O)(O)O` [SR 41 527, Di-(tertiarybutylalmine) salt of 5-mercapto-pentylidene-1,1-diphosphonic acid]: the “Adjuvant arthritis, weight of the paw % inhibition (difference in average paw weight of treated arthritic rats relative to reference arthritic rats)” value is listed as 34%.

As for `O=P(O)(O)C(Sc1nc2ccccc2s1)P(=O)(O)O` [SR 41 481, Tri-(tertiarybutylamine) salt of benzothiazol-2-yl-thiomethylene-diphosphonic acid], the “Adjuvant arthritis, weight of the paw % inhibition (difference in average paw weight of treated arthritic rats relative to reference arthritic rats)” value was determined as 40%.

Regarding `CCCCCCCCSC(P(=O)(OC(C)C)OC(C)C)P(=O)(OC(C)C)OC(C)C` [SR 41 454, Tetraisopropyl n-octylthiomethylene-diphosphonate], the “Adjuvant arthritis, weight of the paw % inhibition (difference in average paw weight of treated arthritic rats relative to reference arthritic rats)” value came out at 33%.

As for `CSCCCCCCCCCCC(O)(P(=O)(O)O)P(=O)(O)O` [SR 42 097], the “Adjuvant arthritis, weight of the paw % inhibition (difference in average paw weight of treated arthritic rats relative to reference arthritic rats)” value turned out to be 50%.

`O=P(O)(O)C(O)(CCSc1ccccc1)P(=O)(O)O` [SR 42 017]: the “Adjuvant arthritis, weight of the paw % inhibition (difference in average paw weight of treated arthritic rats relative to reference arthritic rats)” value is reported as 49%.

Consider `O=P(O)(O)C(O)(CCCCSc1ccc(Cl)cc1)P(=O)(O)O` [SR 42 016], for which the “Adjuvant arthritis, weight of the paw % inhibition (difference in average paw weight of treated arthritic rats relative to reference arthritic rats)” value was 48%.

For `O=P(O)(O)C(Sc1ccccc1)P(=O)(O)O` [SR 41 482], the “Adjuvant arthritis, weight of the paw % inhibition (difference in average paw weight of treated arthritic rats relative to reference arthritic rats)” value was determined as 41%.

Consider `CCCSCCCCCC(O)(P(=O)(O)O)P(=O)(O)O` [SR 42 015], for which the “Adjuvant arthritis, weight of the paw % inhibition (difference in average paw weight of treated arthritic rats relative to reference arthritic rats)” value is recorded as 47%.

For the compound `O=P(O)(O)C(CCCCCCSc1ccc(Cl)cc1)P(=O)(O)O` [SR 41 959], the “Adjuvant arthritis, weight of the paw % inhibition (difference in average paw weight of treated arthritic rats relative to reference arthritic rats)” value is 60%.

`Nc1ccccc1SC(P(=O)(O)O)P(=O)(O)O` [SR 41 388]: the “Adjuvant arthritis, weight of the paw % inhibition (difference in average paw weight of treated arthritic rats relative to reference arthritic rats)” value worked out at 42%.

In the case of `CSCCC(P(=O)(O)O)P(=O)(O)O` [SR 41 273, Tertiary butylamine salt of 3-methylthio-propylidene-1,1-diphosphonic acid], the “Adjuvant arthritis, weight of the paw % inhibition (difference in average paw weight of treated arthritic rats relative to reference arthritic rats)” value was found to be 39%.

With `CC(C)OP(=O)(OC(C)C)C(Sc1ccccc1C(=O)O)P(=O)(OC(C)C)OC(C)C` [SR 41 452], the “Adjuvant arthritis, weight of the paw % inhibition (difference in average paw weight of treated arthritic rats relative to reference arthritic rats)” value turned out to be 15%.

For `O=P(O)(O)C(Sc1cccs1)P(=O)(O)O` [SR 41 549, thien-2-yl-thiomethylene-diphosphonic acid], the “Adjuvant arthritis, weight of the paw % inhibition (difference in average paw weight of treated arthritic rats relative to reference arthritic rats)” value stood at 34%.

Consider `CCCCCSCCCC(O)(P(=O)(O)O)P(=O)(O)O` [SR 41 961], for which the “Adjuvant arthritis, weight of the paw % inhibition (difference in average paw weight of treated arthritic rats relative to reference arthritic rats)” value came to 53%.

In the case of `O=P(O)(O)C(Sc1nc2ccccc2[nH]1)P(=O)(O)O` [SR 41 263], the “Adjuvant arthritis, weight of the paw % inhibition (difference in average paw weight of treated arthritic rats relative to reference arthritic rats)” value is reported as 19%.

For the compound `O=P(O)(O)C(CCCSc1ccccc1)P(=O)(O)O` [SR 41 342, Di-(tertiarybutylamine salt) of 4-phenylthio-butylidene-1,1-diphosphonic acid], the “Adjuvant arthritis, weight of the paw % inhibition (difference in average paw weight of treated arthritic rats relative to reference arthritic rats)” value was 38%.

For the compound `CC(C)SC(P(=O)(O)O)P(=O)(O)O` [SR 41 100], the “Adjuvant arthritis, weight of the paw % inhibition (difference in average paw weight of treated arthritic rats relative to reference arthritic rats)” value is recorded as 37%.

As for `O=P(O)(O)C(CCCCSc1ccccn1)P(=O)(O)O` [SR 42 099, 5-(pyrid-2-yl-thio)-pentylidene-1,1-diphosphonic acid], the “Adjuvant arthritis, weight of the paw % inhibition (difference in average paw weight of treated arthritic rats relative to reference arthritic rats)” value is 44%.

In the case of `O=P(O)(O)C(Sc1ncccn1)P(=O)(O)O` [SR 41 264], the “Adjuvant arthritis, weight of the paw % inhibition (difference in average paw weight of treated arthritic rats relative to reference arthritic rats)” value came to 43%.

`O=P(O)(O)C(O)(CCCCSc1ccc(F)cc1)P(=O)(O)O` [SR 41 909, Di-(tertiarybutylamine) salt of 5-(4-fluorophenylthio)-1-hydroxy-pentylidene-1,1-diphosphonic acid]: the “Adjuvant arthritis, weight of the paw % inhibition (difference in average paw weight of treated arthritic rats relative to reference arthritic rats)” value is listed as 53%.

As to `CCCCCCCCSC(P(=O)(O)O)P(=O)(O)O` [SR 41 421], the “Adjuvant arthritis, weight of the paw % inhibition (difference in average paw weight of treated arthritic rats relative to reference arthritic rats)” value is listed as 55%.

Regarding `CCCCCCCCCCCCCCCCSC(P(=O)(O)O)P(=O)(O)O` [SR 41 453, Monoammonium hexadecylthiomethylene-diphosphonate], the “Adjuvant arthritis, weight of the paw % inhibition (difference in average paw weight of treated arthritic rats relative to reference arthritic rats)” value was 58%.

Take `O=P(O)(O)C(O)(CCCSc1ccc(Cl)cc1)P(=O)(O)O` [SR 41 903, Di-(tertiarybutylamine) salt of 4-(4-chlorophenylthio)-1-hydroxy-butylidene-1,1-diphosphonic acid]: the “Adjuvant arthritis, weight of the paw % inhibition (difference in average paw weight of treated arthritic rats relative to reference arthritic rats)” value is 55%.

For the compound `CC(C)OP(=O)(OC(C)C)C(CCCSc1ccccc1)P(=O)(OC(C)C)OC(C)C` [SR 41 341, Tetraisopropyl 4-phenylthio-butylene-1,1-diphosphonate], the “Adjuvant arthritis, weight of the paw % inhibition (difference in average paw weight of treated arthritic rats relative to reference arthritic rats)” value is given as 24%.

(Values after patent US4876248A, “Anti-inflammatory products derived from methylene-diphosphonic acid, and process for their preparation” (priority 1982, dated 1989).)
